Results reported in patent EP4060021A1, “MIMETIC MICROBIOLOGICAL CULTURE MEDIUM AND USES THEREOF” (BIOFILM PHARMA, priority 2021, dated 2022).

Key:
S. aureus = experiment: Clinical outcome of the prescribed antibiotic therapy (presence/absence of S. aureus in a second sample at end of first-line treatment); format: in vivo, patients diabétiques
From the text: • La Figure 1 représente des courbes de croissance de bactéries en fonction du milieu de culture. Sur cette figure, les ordonnées correspondent au logarithme d'unités formant colonie par millilitre de milieu de culture (Log UFC/ml) et les abscisses, au temps en heure (H). La Figure 1A représente les courbes correspondant à la croissance de 2 souches de S. aureus, Newman (gauche) et SAC1 (droite), dans le milieu BHI (courbe avec indicateurs ronds) et un exemple de milieu selon l'invention (MP) (courbe avec indicateurs carrés). La Figure 1B représente les courbes correspondant à la croissance de 2 souches de P. aeruginosa, PAO1 (gauche) et PAC1 (droite), dans le milieu BHI (courbe avec indicateurs ronds) et un exemple de milieu selon l'invention (MP) (courbe avec indicateurs carrés). La Figure 1C représente les courbes correspondant à la croissance de 2 souches cliniques S. aureus SAC1 et P. aeruginosa PAC1, en coculture dans le milieu BHI (P. aeruginosa BHI ou S. aureus BHI) et un exemple de milieu selon l'invention (MP) (P. aeruginosa MP ou S. aureus MP). La mesure de différence significative, réalisée par le test de Student, entre les valeurs d'UFC/mL est exprimée, soit par (***) qui correspond à une p-value <0,001, soit par (**) qui correspond à une p-value <0,01. • La Figure 2 représente les résultats obtenus d'une détermination de l'adhésion et de la formation de biofilm par dénombrement à 24h. Sur cette figure, les ordonnées correspondent au logarithme d'unités formant colonie par millilitre de milieu de culture (Log UFC/ml). La Figure 2A représente un histogramme ou diagramme en bâton du nombre de bactéries dénombrées suite à des cultures séparées de souche S. aureus Newman (Newman), S. aureus SAC1 (SAC 1), P. aeruginosa PAO1 (PAO1) ou P. aeruginosa PAC1 (PAC1), pendant 24H dans un milieu BHI (BHI) (bâtons noirs) ou dans un exemple de milieu selon l'invention (MP) (bâtons gris). La Figure 2B montre sous forme d'histogramme le nombre de bactéries dénombrées suite à des co-cultures des souches de référence S. aureus Newman et P. aeruginosa PAO1 (PAO1/Newman), ainsi que du couple de souches cliniques S. aureus SAC1 et P. aeruginosa PAC1 (PAC 1/SAC1), pendant 24H dans un milieu BHI (BHI) (bâtons noirs) ou dans un exemple de milieu selon l'invention (MP) (bâtons gris). La mesure de différence significative, réalisée par le test de Student, entre les valeurs d'UFC est exprimée, soit par (***) qui correspond à une p-value <0,001, soit par (**) qui correspond à une p-value <0,01. • La Figure 3 représente les résultats obtenus d'une détermination de sensibilité à des antibiotiques de souches cliniques de S. aureus issues d'infections de plaies du pied chez le diabétique. Les données cliniques, anonymisées, nécessaires à l'interprétation des résultats, consistaient en l'antibiothérapie donnée au patient, ainsi que la qualification par les médecins hospitaliers d'un succès ou échec thérapeutique. La définition de succès ou échec thérapeutique est définie comme suit. Le patient commence et suit l'antibiothérapie prescrite et un deuxième prélèvement microbiologique est effectué lors du dernier jour de traitement de la 1ère antibiothérapie (± 2 jours). Ce prélèvement est utilisé pour déterminer la présence/absence du pathogène ciblé par l'antibiothérapie, S. aureus. Si ce prélèvement a montré la persistance d'un S. aureus, l'antibiothérapie est en échec. A l'inverse, en cas d'absence de S. aureus, l'antibiothérapie est associée à un succès thérapeutique. Les antibiogrammes ont été réalisés classiquement sur une durée de 18h ± 2h en accord avec les recommandations de l'EUCAST. Une gamme de l'antibiotique à tester a été réalisée. • La Figure 3A montre sous forme d'histogramme les résultats des CMI déduites d'antibiogrammes sur 11 souches testées en présence d'amoxicilline / clavulanate de potassium (commercialisé par exemple sous le nom d'Augmentin (marque déposée)). […]

souche de S. aureus = settings: modèle de sepsis, souris infectée par S. aureus, traitées; cited from earlier work

amoxicilline / clavulanate de potassium [amoxicilline/clavulanate de potassium]
Echec: Succès ou échec thérapeutique (S. aureus; souche C03P008) | Succès ou échec thérapeutique (S. aureus; souche C04P007) | Succès ou échec thérapeutique (S. aureus; souche C06P001f) | Succès ou échec thérapeutique (S. aureus; souche C06P001 i) | Succès ou échec thérapeutique (S. aureus; souche C06P003f) | Succès ou échec thérapeutique (S. aureus; souche C06P003i)
Succès: Succès ou échec thérapeutique (S. aureus; souche C01P012) | Succès ou échec thérapeutique (S. aureus; souche C03P001) | Succès ou échec thérapeutique (S. aureus; souche C04P003) | Succès ou échec thérapeutique (S. aureus; souche C04P005f) | Succès ou échec thérapeutique (S. aureus; souche C04P005i)

cotrimoxazole
n'a pas permis la survie des souris: survie des souris (souche de S. aureus)
Succès: Succès ou échec thérapeutique (S. aureus; souche C01P0 11)
Echec: Succès ou échec thérapeutique (S. aureus; souche C01P0 01) | Succès ou échec thérapeutique (S. aureus; souche C03P0 02) | Succès ou échec thérapeutique (S. aureus; souche C03P0 07)

CCC[C@@H]1C[C@@H](C(=O)N[C@@H]([C@H]2O[C@H](SC)[C@H](O)[C@@H](O)[C@H]2O)[C@H](C)Cl)N(C)C1 [clindamycine]
Succès: Succès ou échec thérapeutique (S. aureus; souche C01P009) | Succès ou échec thérapeutique (S. aureus; souche C03P003) | Succès ou échec thérapeutique (S. aureus; souche C03P004) | Succès ou échec thérapeutique (S. aureus; souche C03P009)
Echec: Succès ou échec thérapeutique (S. aureus; souche C01P010) | Succès ou échec thérapeutique (S. aureus; souche C03P005)
